The text below walks through data of patent US20240100013A1, “SOTAGLIFLOZIN FOR IMPROVING LEFT ATRIAL FUNCTION” (CHARITÉ-UNIVERSITÄTSMEDIZIN BERLIN, priority 2021, published 2024).

This experiment relates to LA cardiomyocytes. Nature of the experiment: Mitochondrial structure and Ca2+ uptake in LA cardiomyocytes. It is filed as cell-based, rat. The following applies: HFpEF. The source says:
For cell membrane permeabilization and subsequent measurements of mitochondrial Ca^2+ uptake (See ‘Mitochondrial structure and Ca^2+ uptake’) wash and internal solutions were used. Wash solution contained (in mM): 100 potassium acetate, 15 KCl, 0.35 EGTA, 0.75 MgCl2, 10 HEPES; pH adjusted to 7.2 with KOH. Internal solution contained (in mM): 125 KCl, 10 NaCl, 20 HEPES, 5 pyruvate, 2 maleic acid, 2 glutamic acid, 0.5 KH2PO4, 0.5 MgCl2, 5 EGTA, 0.002 free Ca^2+(MaxChelator), 15 BDM, pH adjusted to 7.2 with KOH. For permeabilization, 0.005% saponin was added to the internal solution.
Mitochondrial structure and Ca^2+ uptake. Mitochondrial structure was visualized by local thresholding of two-dimensional images acquired with MitoTracker Red (FIGS. 5A-B, 6D) and MitoTracker Green (FIGS. 4C-F) at an LSM 800 laser scanning microscope (Zeiss, Oberkochen, Germany). The fraction of mitochondria in relation to cell surface was taken as a measure of mitochondrial density. The averaged perimeter to area ratio of mitochondrial structures per cell was calculated as an indicator of mitochondrial fission using a 2-step Otsu thresholding algorithm. See Hohendanner F, Ljubojevic S, MacQuaide N, Sacherer M, Sedej S, Biesmans L, Wakula P, Platzer D, Sokolow S, Herchuelz A et al: “Intracellular dyssynchrony of diastolic cytosolic [Ca(2)(+)] decay in ventricular cardiomyocytes in cardiac remodeling and human heart failure,” Circ Res 2013, 113(5):527-538.
Mitochondrial Ca^2+ uptake was determined as previously described in detail. See Maxwell J T, Tsai C H, Mohiuddin T A, Kwong J Q: “Analyses of Mitochondrial Calcium Influx in Isolated Mitochondria and Cultured Cells,” Journal of visualized experiments: JoVE 2018(134). LA cardiomyocytes were loaded with Rhod-2 AM and MitoTracker green, transferred to an LSM 800 laser scanning microscope and washed twice with sodium and calcium-free wash solution. The cells were then permeabilized with internal solution containing 0.005% saponin for a duration of 30-60 s and consecutively washed twice with nominal Ca^2+ free internal solution containing 5 mM EGTA. Two-dimensional images of Rhod-2 (excitation: 559 nm, emission: 575-675 nm) and MitoTracker green fluorescence (excitation: 488 nm, emission: 505-525 nm) were obtained. The perfusion was switched to internal solution containing 2 μM Ca^2+. After 1 min, a second set of Rhod-2/MitoTracker images was obtained. Following another 1-min interval, a third set of images was obtained to confirm that mitochondrial Ca^2+ uptake had indeed been completed in the second set. A binary mask of mitochondrial structures was derived from MitoTracker green images and positive pixels defined as the region-of-interest for sub-sequent determination of Rhod-2 signal intensity (F). Signal intensity during perfusion with 0 μM Ca^2+ was defined as F0 and changes of [Ca^2+] after exposure to 2 μM Ca^2+ expressed as ΔF=F−F0. The change of mitochondrial density (L.%) was quantified as a measure of mitochondrial swelling.

With `CCOc1ccc(Cc2cc([C@@H]3O[C@H](SC)[C@@H](O)[C@H](O)[C@H]3O)ccc2Cl)cc1` [sotagliflozin, (2S,3R,4R,5S,6R)-2-(4-chloro-3-(4-ethoxybenzyl)phenyl)-6-(methylthio)tetrahydro-2H-pyran-3,4,5-triol], the “increased density of mitochondria in LA cardiomyocytes” value was “prevented”. The “increase of mitochondrial Ca2+ uptake” value (Sota vs vehicle) is “two-fold increase”. Moreover, under “after 1 h glucose starvation”, the mitochondrial fission result is recorded as “significantly reduced”. For the same molecule, the swelling of mitochondria result (after exposure to 2 μM Ca2+) is given as “this effect did not occur”. The “mitochondrial Ca2+ uptake” value (permeabilized cells, exposure from 0 μM to 2 μM Ca2+, vehicle 0.84±0.07) was 1.76±0.27 AF/F0.
